# Laboratory results published in US20070074295A1 (priority 2000, published 2007).
# Experiments:
# [1] = system: TNFα mRNA; assay: RT-PCR for TNFα mRNA in rat prefrontal cortex; assay type: in vivo; conditions: acute PCP, single i.p. injection 2 mg/kg, 2 hrs and 24 hrs
# Procedure: Four groups of rats were treated with (a) chronic PCP, (b) chronic vehicle (control), (c) chronic PCP plus chronic clozapine (as above) or (d) chronic PCP plus chronic haloperidol (as above). The tissue was processed for RNA extraction and RT-PCP as described above, using primers specific for TNFα mRNA.
# [2] = system: rats; assay: Effect of haloperidol and clozapine on PCP induced hypofunction: LCGU; assay type: in vivo, rat; conditions: i.p. PCP 2.58 mgkg^−1; minipump vehicle, clozapine 20 or haloperidol 1 mgkg^−1/day; day 29
# Text: The effect of antipsychotics on the positive symptoms is less well studied regarding imaging studies.
# [3] = system: 5-HT2A receptors; assay: 5-HT2A receptor binding (3H-ketanserin autoradiography) in prefrontal cortex after chronic PCP; assay type: in vivo, rat; conditions: chronic PCP treatment
# Text: In order to further validate this chronic PCP model, the effects of this treatment paradigm on 5-HT2A receptors within the prefrontal cortex was investigated. Chronic PCP treatment produced a significant decrease in 5-HT2A receptors in layer II & III (controls 158±6, PCP 139±4 fmolmg^−1) and layers V & VI (controls 82±4, PCP 69±3 fmolmg^−1). This is entirely consistent with post mortem studies of 5-HT2A receptor binding from schizophrenic patents (Laurelle, M. et al).
# 5-HT2A receptor binding: Sections from the level of the prefrontal cortex were preincubated for two consecutive washes at room temperature in 50mM Tris HCl buffer pH 7.4 to remove endogenous ligand. Total binding was defined using 0.71 nM (Wolkin, A. et al) ^3H-ketanserin in the presence of 1μM prazozin and 1μM tetrabenazine (to block non 5-HT2A binding). Non-specific binding was defined using 50nM spiperone. Sections were incubated with the appropriate ligand solution for 1 hour at room temperature then washed twice for 10 minutes in ice cold buffer before being rinsed in ice cold water and rapidly air dried. The sections were then exposed to film (Biomax MR, Kodak) with previously calibrated (Wolkin, A. et al) ^3H-standards.
# Autoradiograms were analysed using MCID densitometry system. Results were statistically analysed using a one-way ANOVA followed by a student Newman-Keuls post hoc test.
# [4] = system: CIRL3 variant AA mRNA; assay: Semi-quantitative RT-PCR, prefrontal cortex, chronic PCP and antipsychotic treatment; assay type: in vivo, rat; conditions: chronic PCP treatment
# Procedure: FIG. 16 illustrates the level of CIRL3 variant AA mRNA present in the prefrontal cortex of rat brain following chronic PCP and antipsychotic treatment (n=12 for all groups apart from veh-veh where n=11) […] and […] (SEQ ID NOS: 29-30) were the primer sequences used to amplify this product.
# RT-PCR for specific isoforms of CIRL was then conducted in the prefrontal cortex.
# 1 ml of lysis buffer (Qiagen), including 1% β-mercaptoethanol, was added to approximately 50-100 mg of brain tissue. Tissue samples were homogenised using a ribolyser (Hybaid) with 3 bursts at 6.5 g lasting 20 seconds each. Samples were then spun at room temperature in a microfuge for 3 minutes. The supernatant was removed and re-spun for a further 3 minutes. The supernatant was decanted to a fresh tube to which an equal volume of 70% ethanol was added. The remaining RNA isolation procedure was carried out according to the manufacturer's protocol (Qiagen).
# Synthesis of cDNA was carried out according to manufacturers protocols (Life Technologies). Briefly 3-5μg of total RNA was reverse transcribed using oligo dT priming. After cDNA synthesis, samples were aliquoted and stored at −70° C. […]
# Alterations in expression levels were determined by semi-quantitative PCR. […] Samples were removed over 4 consecutive cycles, however, the first cycle to be removed sometimes varied depending on when logarithmic amplification was detected. […]
smiles,measurement,setting,value
"c1ccc(C2(N3CCCCC3)CCCCC2)cc1 [PCP, phencyclidine]",levels of TNFα in rat prefrontal cortex,[1],reduced
same,"LCGU, Au layer I",[2],138 ± 3 μmol/100 g/min
same,"LCGU, Au layers II, III&IV",[2],174 ± 4 μmol/100 g/min
same,"LCGU, Au layers V & VI",[2],120 ± 2 μmol/100 g/min
same,"LCGU, AuD layer I",[2],126 ± 5 μmol/100 g/min
same,"LCGU, AuD layers II, III&IV",[2],141 ± 6 μmol/100 g/min
same,"LCGU, AuD layers V & VI",[2],105 ± 2 μmol/100 g/min
same,"LCGU, CA1 molecular layer",[2],93 ± 2 μmol/100 g/min
same,"LCGU, CA1 pyramidal cell layer",[2],63 ± 2 μmol/100 g/min
same,"LCGU, CA1 stratum oriens",[2],59 ± 2 μmol/100 g/min
same,"LCGU, CA1 stratum radiatum",[2],67 ± 2 μmol/100 g/min
same,"LCGU, CA3 molecular layer",[2],90 ± 2 μmol/100 g/min
same,"LCGU, CA3 pyramidal cell layer",[2],69 ± 2 μmol/100 g/min
same,"LCGU, CA3 stratum oriens",[2],60 ± 3 μmol/100 g/min
same,"LCGU, CA3 stratum radiatum",[2],70 ± 3 μmol/100 g/min
same,"LCGU, DLL",[2],89 ± 4 μmol/100 g/min
same,"LCGU, MD",[2],133 ± 6 μmol/100 g/min
same,"LCGU, PrL layer I",[2],109 ± 4 μmol/100 g/min
same,"LCGU, PrL layers II & III",[2],127 ± 5 μmol/100 g/min
same,"LCGU, PrL layers V & VI",[2],97 ± 3 μmol/100 g/min
same,"LCGU, Rt",[2],79 ± 2 μmol/100 g/min
same,"LCGU, VLL",[2],98 ± 6 μmol/100 g/min
same,"LCGU, cochlear nucleus",[2],92 ± 4 μmol/100 g/min
same,"LCGU, mO layer I",[2],104 ± 5 μmol/100 g/min
same,"LCGU, mO layers II & III",[2],121 ± 6 μmol/100 g/min
same,"LCGU, mO layers V & VI",[2],113 ± 6 μmol/100 g/min
same,"5-HT2A receptors, prefrontal cortex layer II & III",[3],139±4 fmolmg^−1
same,"5-HT2A receptors, prefrontal cortex layers V & VI",[3],69±3 fmolmg^−1
same,expression of CIRL3 (AA) (RT-PCR),[4],reduced
